Structures are written as SMILES. Entries after “also recorded” stand apart in the source; their conditions may differ.

Series [1] relates to 3D reconstructed epidermis model (Epiderm tissue, Epi-200). The experiment in a line: Skin irritation test (OECD TG 439, EPI-200-SIT), MTT viability. Format: cell-based, human. To be noted: for reduction in cell viability in the skin tissue: 1 h exposure, MTT, relative to PBS, SDS 5%, HA-CBT 20 and 2 mg/mL, gly-CBT 1 and 0.1 mg/mL. On the procedure:
To evaluate the biocompatibility of CBT functionalized molecules, a skin irritation study was conducted using a 3D reconstructed epidermis model supplied by Mattek. The skin irritation test was conducted following the OECD TG 439 protocol as a basis. Upon receiving the Epiderm™ tissue (Epi-200) from Mattek, the tissue inserts were removed from agarose and incubated in 0.9 mL of media in 6 well plates for 1 h at 37° C. The tissue inserts were then transferred to new wells containing 0.9 mL of fresh media, and incubated overnight for 18 h at 37° C. 30 μL of PBS, HA-CBT (20 mg/mL and 2 mg/mL in PBS), gly-CBT (1 mg/mL and 0.1 mg/mL), and SDS (5 wt %) was applied and spread on the top of 3 independent tissue inserts each. After incubation at 37° C. for 1 h, the formulations were pipetted out and the tissue inserts were washed three times with PBS. The tissue inserts were then incubated in fresh media for 24 h at 37° C. The media was then exchanged with fresh media, and the inserts were incubated for an additional 18 h at 37° C. Following incubation, the viability of the tissue was assessed using the MTT assay, discussed in detail in a protocol established by Mattek (EPI-200-SIT).

A short description of series [2]: Penetration of gly-CBT in 3D human skin model (EpiDerm), absorbance at 326 nm and microscopy. Format: in vitro ADME. On the procedure: The penetration and interactions of gly-CBT in human skin was assessed using a 3D human skin model (Mattek EpiDerm™). After allowing the skin tissues to equilibrate with media for 1 h at 37° C. in 6 well plates, the media was replaced with PBS and 100 μL of PBS and gly-CBT (1 mg/mL) were applied on top of 4 skin tissues each. Following 6 h incubation, a single tissue from each group was flash frozen in OCT for cryosectioning and microscopy. For the remaining samples, the liquid which remained on top of the tissue inserts (~100 μL) and the liquid in the acceptor solution (900 μL) was collected. The top of the tissue inserts were then washed 2× with PBS and then the inserts were submerged into 2 mL of a 1:1 PBS:MeOH solution to extract molecules which penetrated the skin. After performing the extraction for 2 h at 37° C., the concentration of gly-CBT was measured in the donor, acceptor, and extract solutions by reading the absorbance at 326 nm with a plate reader. The remaining tissue insert was cryosectioned and imaged using fluorescent microscopy as described in Example 1.

Series [3] can be described thus: Distribution of chemical species in EpiDerm tissue by HPLC with sequential extractions. Type of series: in vitro ADME, human. On the procedure:
To further study the penetration of gly-CBT within human skin tissue, HPLC was used to quantify the distribution of different chemical species after application of gly-CBT and gly-aminoLuciferin (gly-Luc) into EpiDerm™ tissue. As described above, 100 μL of gly-CBT and gly-Luc was applied on the top of the skin tissue. Following 6 h incubation, the donor and acceptor solutions were collected and the chemical species which penetrated the skin were attempted to be extracted with 1:1 MeOH:PBS. Following the first extraction protocol, the tissue inserts were rinsed with PBS and imaged in a dark room by exposing with a UV254 lamp. Following the imaging, further extractions were carried out sequentially with 1.0% Triton X-100, acidified MeOH (0.1% TFA), and DCM. Neither of the later extractions were successful in extracting out any additional CBT species.

Series [4] is described as follows: Skin penetration on porcine skin, fluorescence microscopy of cryosections. Format: in vitro ADME. On the procedure:
Frozen, porcine skin was allowed to equilibrate to room temperature, and then cut into ~2×2 cm squares and placed into 0.9 mL of PBS in a 6 well plate. 25 μL of HA-CBT (10 mg/mL in PBS), gly-CBT (1 mg/mL in PBS), and PBS were gently spread on porcine skin to a 1 cm circle with a metal spatula. After spreading the formulations, the 6 well plate was placed into a humidified incubator at 37° C. for 18 h.
A small region in the center of the application area was then excised using a surgical scalpel, and placed into OCT in a biopsy mold. The tissue was snap frozen by placing the biopsy mold directly into a methylpentane, dry ice slurry. The tissue was then sectioned on a cryostat microtome to 20 μm sections. A drop of ProLong Gold was placed on each section and covered with a coverslip prior to imaging. Images were taken on a ZeissAxioPlan2 using a 10× objective and a DAPI filter to visualize the location of CBT.

Consider `CCCCCCCCCCCCOS(=O)(=O)[O-].[Na+]` [SDS, reference compound], for which the “reduction in cell viability in the skin tissue” value in series [1] is reported as approximately 100%.

`N#Cc1nc2ccc(NC(=O)CN)cc2s1` [gly-CBT]: the “reduction in cell viability in the skin tissue” value in series [1] is “neither gly-CBT nor HA-CBT showed any reduction”. The irritation classification result in series [1] (EPI-200-SIT, relative viability greater than 50% = non-irritant) was “non-irritants”. For the same molecule, the “applied gly-CBT extracted from within the Epiderm tissue” value in series [2] (1:1 PBS:MeOH extraction 2 h at 37 °C) was ~ 10%. Also, the “total gly-CBT detected after extraction and in donor and acceptor solutions” value in series [2] (6 h incubation, 1:1 PBS:MeOH extraction) is listed as ~ 50%. For the same molecule, in series [2] (EpiDerm, 6 hours), the “fraction of the penetrated amount that appeared in the acceptor compartment” value is reported as “about ⅓” and the “fraction of the penetrated amount that remained in the skin” value was “⅔”. Moreover, in series [2] (EpiDerm, within 6 hours), the “applied dose that penetrated the skin” value is “about 75%”. For the same molecule, the “fluorescent signal within the tissue by microscopy” value in series [2] (after 6 h application, cryosection) was “significant fluorescent signal”. In addition, the “applied gly-CBT remaining on the surface of the epiderm tissue” value in series [2] (after 6 h incubation, 1 mg/mL, absorbance 326 nm) is ~ 25%. In series [3] (after first extraction process and washing step), the “fluorescence of tissue insert under UV lamp” value is “extremely fluorescent”. The “extractability from the tissue with Triton X-100, acidified methanol and dichloromethane” value in series [3] (sequential extractions after 1:1 MeOH:PBS) is on record as “unable to be extracted; also recorded: could not be removed”. Further, the “extraction of gly-CBT from porcine skin” value in series [4] is “inability to extract”. Besides, in series [4] (18 h at 37 °C, DAPI filter), the “fluorescence signal in the dermis” value is listed as “lower signal”. The “fluorescence within the stratum corneum and epidermis” value in series [4] (18 h at 37 °C, DAPI filter, HA-CBT 10 mg/mL, gly-CBT 1 mg/mL in PBS) is listed as “High fluorescence”.

The values are drawn from patent US12721861B2, “Delivery and retention of active agents within the skin” (Fount Bio, Inc., priority 2019, dated 2026).
